Patent EP4772498A1, “COMPOUND ACTING AS ANDROGEN RECEPTOR ANTAGONIST” (China Pharmaceutical University, priority 2023, dated 2025)
Like-named read-outs stand apart in the source and are kept apart here. Marks after values point to notes of the source that are not given here.

Experiments:
C57BL/6 mice [1] = details: mouse, in vivo
From the text: (§1) Animal information: C57BL/6 mice (male, aged 4-6 weeks, about 18-20 g), purchased from Shanghai Lingchang Biotechnology Co., Ltd. The mice were bred in an SPF-level environment within independently ventilated cages.
(§2) Skin preparation: After 1-2 weeks of acclimation, the hairs in a 2 cm × 3 cm area of the back of the mice were shaved to confirm that the hairs of the mice were in the telogen phase (the skin was pink) and the skin was not damaged.
(§3) Treatment: On day 3 after shaving, the mice were grouped for treatment. […] The control group received the control solvent. 12 mice were in each group.
(§4) The mice were weighed on days 10, 13, 18, 21, 25, and 30, and the hair growth state was scored and photographed.
(§5) The scoring criteria are as follows: • 0: no growth, with pink skin in the shaved area; • 1: the skin in the shaved area was gray (an increase of less than 20%); • 2: the skin in the shaved area was black (more than 20% but less than 40%); • 3: the skin in the shaved area was black with a little hair growth (more than 40% but less than 60%); • 4: the skin in the shaved area was black with partial hair growth (more than 60% but less than 80%); • 5: basically complete hair growth (80%-100% growth) in the shaved area.

C57BL/6 mice [2] = test: In vivo pharmacodynamic study 1: hair growth scoring in shaved telogen-phase mice, topical treatment; details: for Score (mean±SD): hair growth score 0-5, topical twice daily, compound 001 2 wt%, compound 008 0.5 wt%
From the text: as §1, §2, §3, §4, §5

AR = AR antagonistic activity: AR / PSA ARE1 luciferase reporter gene assay in transfected LNCaP cells stimulated with 1 nM DHT; assay type: cell-based; details: treatment concentration: 3.3 µM, 24 h, normalised to 0.1% DMSO and 30 µM enzalutamide
Experimental: LNCaP cells were plated in a 6-well plate (Corning, 3516) at 8 × 10^5 cells/well.
AR and PSA ARE1 reporter gene plasmids (Bio (Anhui) Co., Ltd.) and transfection reagents Lipo3000 and P3000 (Lipofectamine™ 3000) (a total of 2.5 µg of plasmids, i.e., 1.25 µg of each plasmid, were added to each well) were left to stand and incubated for 10 min, and then 250 µL of the above transfection reagents were added dropwise to each well containing cells and co-incubated with the cells for 24 h.
The cells were washed with PBS, and the medium was replaced with a phenol red-free RPMI-1640 medium containing 5% carbon adsorption serum (or 10% fetal bovine serum and 1% penicillin and streptomycin). The cells were re-plated onto a 96-well plate (Corning, 3603) according to the number of cells plated (2 × 10^4 cells/well).
After cell plating, the test compound (or DMSO or positive control) was added. After at least 30 min of incubation, DHT (dihydrotestosterone) was added to the culture system at a final concentration of 1 nM. The culture system was then incubated in a carbon dioxide incubator.
Test compound: 10 mM stock solution, with a final concentration of 3.3 µM or 6.7 µM. Negative control: 0.1% DMSO. Positive control: 30 µM enzalutamide.
After the test compound (or DMSO or positive control) and DHT were co-incubated for 24 h, the luciferase signal was detected using the Vazyme Bright-Lite substrate. The medium was added at 70 µL/well, and the plate was shaken for 2 min, followed by reading of the luciferase signal.
Assay robustness was confirmed using the DMSO and low concentration control data: Ave_H = Ave(DMSO) [formula] Ave_L = Ave (30μMenzalutamide) [formula] Inhibition rate (%) = (Ave_H−Sample)/(Ave_H−Ave_L) × 100% [formula] Ave_H: the measurement of the negative control (0.1% DMSO); Ave_L: the measurement of the positive control (30 µM enzalutamide); Sample: the measurement of the test compound; The corresponding activity test results for the test compounds were specified in Table 1. Table 1. Corresponding activity test results for compounds disclosed herein

[3] = 5 µM
Experimental: (§6) 1 mM stock solutions of the test compounds were prepared in DMSO, and a 1 mM stock solution of the reference compound propantheline was prepared in acetonitrile.
(§7) 4 µL of test compound (or reference compound) stock solution was added to 796 µL of pre-incubated human blood (whole blood) at a final concentration of 5 µM. The final concentration of the solvent was 0.5%. At different time points (including 5 min, 15 min, 30 min, 60 min, and 120 min), a 50 µL aliquot of the whole blood containing the sample was added to a new tube and incubated in a 37 °C water bath with shaking at 60 rpm. The treatment was performed in duplicate. At designated time points, 300 µL of room-temperature quenching solution (a solution of acetonitrile containing internal standards (100 nM alprazolam, 500 nM labetalol, and 2 µM ketoprofen)) was added to the whole blood sample containing the sample to terminate the reaction. 50 µL of whole blood containing the sample was added to a new tube containing 300 µL of room-temperature quenching solution to prepare a sample at 0 min. All samples were vortexed for 5 min. The samples in the plate were centrifuged at 3220 g for 30 min at 4 °C to precipitate the proteins. 100 µL of the supernatant was transferred to a new 96-well plate containing 100 µL of water for LC-MS/MS analysis.
(§8) The peak area ratio was determined by using an extracted ion chromatogram. The proportion of remaining compound at each time point was calculated according to the following formula: Remaning proporion t min (%) = peak area ratio t min / peak area ratio 0 min × 100% [formula] • Peak area ratio t min: peak area ratio of reference compound to test compound at t min; • Peak area ratio 0 min: peak area ratio of reference compound to test compound at time zero.
(§9) The slope value was determined by linear regression on the curve of the natural logarithm of the remaining proportion of the test compound versus the incubation time.
(§10) Determination of in vitro half-life (in vitro t1/2) from the slope value: in vitro t1/2 = 0.693/k [formula] in the formula, k is the rate constant (k = -slope value)

[4] = Metabolic stability assay in liver microsomes; assay type: in vitro ADME; details: pH 7.4, human liver microsome 0.5 mg/mL, 1 mM NADPH, compound 1 µM, 37 °C; for microsomal CLint at 1 µM: read-out: In vitro Clint; for half-life at 1 µM: read-out: In vitro T1/2
Experimental: The metabolic stability of compounds disclosed herein in liver microsomes was determined using the following method.
• 1. Liver microsome source: Human liver microsome (Corning, 452117) • 2. Na2HPO4 (Tianjin Guangfu Fine Chemical Research Institute, 20180130) • 3. KH2PO4 (Tianjin Guangfu Fine Chemical Research Institute, 20180920) • 4. MgCl2 (Tianjin Guangfu Fine Chemical Research Institute, 20191216) • 5. NADPH (Solarbio, 1216C022) • 6. Positive control compound verapamil (Sigma, MKBV4993V) • 7. AB Sciex Triple Quad 4000 liquid chromatography-mass spectrometry system
1. Preparation of 100 mM phosphate-buffered saline (PBS): 7.098 g Na2HPO4 was dissolved in 500 mL of purified water by sonication to give solution A. 3.400 g of KH2PO4 was dissolved in 250 mL of purified water by sonication to give solution B. Solution A was placed on a stirrer, and solution B was added slowly until the pH reached 7.4, so as to give a 100 mM PBS buffer. 2. Preparation of reaction system The reaction system was prepared according to the table below.
3. The reaction system was pre-incubated in a 37 °C water bath for 10 min. 40 µL of 10 mM NADPH solution (NADPH was dissolved in 100 mM phosphate-buffered saline) was added to the reaction system, with the final concentration of NADPH being 1 mM. A negative control was prepared by replacing the NADPH solution with 40 µL of phosphate-buffered saline. The negative control was used to exclude the effect of the chemical stability of the compound itself. 4. The reaction was initiated by adding 4 µL of 100 µM compound disclosed herein or positive control compound verapamil to the reaction system at a final concentration of 1 µM. 5. After 0.5 min, 15 min, 30 min, 45 min, and 60 min of mixing well by using a vortex oscillator, 50 µ L of the incubated sample was taken out, and glacial acetonitrile containing an internal standard of 4 folds was added to terminate the reaction. The sample was centrifuged at 3,220 g for 45 min. 90 µL of the supernatant was transferred to a feeding plate after the centrifugation was completed, and 90 µL ultrapure water was added. The mixture was well mixed for LC-MS/MS analysis.
All data were calculated by using Microsoft Excel software. The peak areas were determined by using an extracted ion chromatogram. The in vitro half-life (T1/2) of the test compound was determined by linear fitting of the natural logarithm of the elimination proportion of the test compound over time. In vitro half-life (T1/2) was calculated by the slope k: in vitro T1/2 = 0.693/k [formula]
The in vitro intrinsic clearance (in vitro CLint, unit: µL/min/mg protein) was calculated using the following formula: in vitro CLint = k × volume of incubation solution/enzyme protein content; [formula]

C57BL/6 mice [5] = test: In vivo pharmacodynamic study 2: hair growth scoring in shaved telogen-phase mice, topical treatment; details: for Score (mean±SD): hair growth score 0-5, 0.5 wt% topical twice daily
From the text: Vehicle: propylene glycol/ethanol (30:70, v/v)
A 1 cm × 1 cm area in the center of the back skin was selected as the treatment area.
The control group received the control solvent. 12 mice were in each group.
The mice were weighed on days 9, 12, 15, 19, and 22, and the hair growth state was scored and photographed.

Whole blood stability = details: human
Experimental: as §6, §7, §8, §9, §10

in vitro = details: human, blood
Experimental: as §6, §7, §8, §9, §10

[6] = at the investigated doses (0.5 wt%, BID topical)

CCOC(=O)C(C)(O)C(=O)Nc1cnc(C#N)c(C(F)(F)F)c1 (stereo not shown) [Compound 001, Ethyl 3-[[6-cyano-5-(trifluoromethyl)-pyridin-3-yl]amino]-2-hydroxy-2-methyl-3-oxopropanoate]
impact on the body weight of the mice (C57BL/6 mice [1]): no significant impact
signs of erythema, dehiscence, desquamation, and the like on the skin (C57BL/6 mice [1]): no signs
Score (mean±SD) (C57BL/6 mice [2]; Day 0): 0
Score (mean±SD) (C57BL/6 mice [2]; Day 10): 0.6±0.5
Score (mean±SD) (C57BL/6 mice [2]; Day 13): 0.9±0.9
Score (mean±SD) (C57BL/6 mice [2]; Day 18): 1.3±1.4
Score (mean±SD) (C57BL/6 mice [2]; Day 21): 1.9±1.8
Score (mean±SD) (C57BL/6 mice [2]; Day 25): 2.4±2.2
Score (mean±SD) (C57BL/6 mice [2]; Day 30): 3.0±1.8
effect on mouse hair growth (C57BL/6 mice [2]; compound 001 at 2%, compound 008 at 0.5%, BID topically at 20 µL/cm^2): significant promoting effect
day of the treatment from which hair growth was significantly promoted (C57BL/6 mice [2]; vs. vehicle control, 001 P < 0.01, 008 P < 0.05): ≥ 10 days
AR antagonism (inhibition rate, %) (AR): 86.6^a %
Human whole blood half-life T1/2 [3]: 2.9982 h

CCOC(=O)[C@@](C)(O)C(=O)Nc1cnc(C#N)c(SC)c1 [Compound 016A, ethyl (2S)-3-[(6-cyano-5-methylthio-pyridin-3-yl)amino]-2-hydroxy-2-methyl-3-oxopropanoate]
microsomal CLint at 1 µM ([4]; human liver microsomes): 91.8 µL/min/mg
half-life at 1 µM ([4]; human liver microsomes): 0.252 h
effect on hair growth (C57BL/6 mice [5]; 0.5 wt%, BID topically at 20 µL/cm^2): significant promoting effect
Score (mean±SD) (C57BL/6 mice [5]; Day 0): 0
Score (mean±SD) (C57BL/6 mice [5]; Day 9): 0.1±0.3
Score (mean±SD) (C57BL/6 mice [5]; Day 12): 0.1±0.3
Score (mean±SD) (C57BL/6 mice [5]; Day 15): 0.5±0.8
Score (mean±SD) (C57BL/6 mice [5]; Day 19): 1.7±1.5
Score (mean±SD) (C57BL/6 mice [5]; Day 22): 2.9±1.6
impact on the body weight of the mice (C57BL/6 mice [5]; [6]): no significant impact
signs of erythema, dehiscence, desquamation, and the like on the skin (C57BL/6 mice [5]; [6]): no signs
day of the treatment from which hair growth was significantly promoted (C57BL/6 mice [5]; vs. vehicle control, P < 0.0001): ≥ 19 days
half-life at 5 µM (Whole blood stability): 2.2 h
AR antagonism (inhibition rate, %) (AR): 99.98^a %

CCOC(=O)C(C)(O)C(=O)Nc1cnc(C#N)c(SC)c1 (single isomer, unassigned) [Compound 016B]
microsomal CLint at 1 µM ([4]; microsomes): 88.3 µL/min/mg
half-life at 1 µM ([4]; microsomes): 0.262 h
half-life at 5 µM (in vitro): 1.69 h
AR antagonism (inhibition rate, %) (AR): 90.50^a %
